Values quoted from earlier work in patent US20100056546A1, “SULFONYLUREA INHIBITORS OF ATP-SENSITIVE POTASSIUM CHANNELS” (Auspex Pharmaceuticals, Inc., priority 2008, published 2010).

Conditions: compared with glipizide; Ambrogi et al. 1972

For `Cc1cnc(C(=O)NCCc2ccc(S(=O)(=O)NC(=O)N[C@H]3CCC[C@@H](O)C3)cc2)cn1` (relative stereo) [cis-3-hydroxy-glipizide], the “activity relative to the parent compound” value is given as “significantly less active”.
For `Cc1cnc(C(=O)NCCc2ccc(S(=O)(=O)NC(=O)N[C@H]3CC[C@H](O)CC3)cc2)cn1` [trans-4-hydroxy-glipizide], the “activity relative to the parent compound” value is listed as “significantly less active”.
